For assay [1], the system named is CD4+ T cell line P69.2 (Ed-restricted, Ld 61-80-specific). Description: T cell line P69.2 proliferation assay. The format is cell-based, mouse. To be noted: for natural presentation of self-peptide: no exogenously added peptide.
The subject of assay [2] is CD4+ T cell line B10.A-P11.2 (Ek-restricted, Ld 61-80-specific). In words: T cell line B10.A-P11.2 proliferation assay. To be noted: no added peptide. The format is cell-based, mouse.
In assay [3] the test system is MHC class II-restricted presentation by APCs. Particulars: cited from earlier work.
In assay [4] the test system is lymph node cells from mice immunized with the peptide. Description: Lymph node / spleen T cell proliferation assay of peptide-immunized mice. The format is cell-based, mouse.
The test system of assay [5] is T cells from Ld 61-80-primed B10.A mice. Particulars: H-2k class II-restricted; cited from earlier work.
Assay [6] relates to lymph node cells from mice immunized with the peptide. Particulars: syngeneic B10.A mice; cited from earlier work.
In assay [7] the test system is BALB/c-dm2 lymph node T cells primed with Ld 61-80. Description: T cell determinant mapping with overlapping 12 mers. The assay is classed as cell-based, mouse. To be noted: dm2 mice primed with Ld 61-80, single residue steps, Fig. 4.
Assay [8] has as its system I-Ek MHC class II molecules. Particulars: Fig. 2 A legend; control peptide; no reference given; cited from earlier work.
Assay [9] deals with I-Ed MHC class II molecules (Mus musculus, UniProt P01904+P01915). Particulars: Fig. 2 B legend; control peptide; no reference given; cited from earlier work.

The values below come from paper PMC2192203 (The Journal of Experimental Medicine, 1995).

In the case of EtLITQIAKGQEQWFILVNLR,T [Ld 61-80], the “natural presentation of self-peptide” value in assay [1] ((B10.A x B10.D2) F1 APCs, Fig. 3 C) is “could not spontaneously process and present”; in assay [1] (BALB/c APCs, Fig. 3 B), “continuously process and present”; in [2] (B10.A splenocytes, Fig. 3 A), “did not naturally process”; in assay [2] (B10.A(5R) APCs, Fig. 7), “present spontaneously”. Further, in [1] (B10.GD splenocytes (lacking Ed) as APCs), the “stimulation of P69.2 in presence of specific peptide” value is “could not stimulate”. Also, in [1] (dm2 APCs, 60 h, [3H]thymidine last 12 h, Fig. 3 B), the “stimulation of P69.2 by added peptide” value is given as “required”. In addition, the “in vitro presentation by BALB/c APCs” value in [3] (BALB/c APCs, self-MHC class II) is on record as “regularly presented in vitro”. Further, in [3] (Ii-positive and -negative APCs), the “stimulation of Ld 61-80-specific class II-restricted T cell hybridoma” value is “could be stimulated in the presence of both Ii- positive and -negative APCs”. In addition, the “TAP-1 requirement of class II presentation” value in assay [3] is recorded as “does not require a functional TAP-1 protein”. For the same substance, the immunogenicity result in [4] ((B10.A x B10.D2) F1 mice (Fig. 1 D)) is “immunogenic and therefore cryptic”; in assay [4] (A/J mice (Table 1)) it was “vigorous T cell responses”; in [4] (B10.AKM mice (Table 2)), “immunogenic”; in assay [4] (B10.D2 mice (Table 1)), “failed to respond”; in assay [4] (BALB/c mice (Fig. 1 B)), “nonimmunogenic”; in assay [4] (DBA/2 mice (Table 1)) it was “nonimmunogenic”. For the same substance, the immunogenicity entry in [4] (dm2 mutant mice, not expressing Ld (Fig. 1 C)) is “immunogenic”. For the same substance, the “phenotype of self-peptide (cryptic or dominant)” value in assay [4] (A.TL and B10.MBR mice) is “cryptic”; in assay [4] (B10.A(5R) mice) it was “dominant”; in assay [4] (parental H-2s and H-2b mice) it was “dominant”. Moreover, the “T cell proliferation after immunization” value in assay [4] (B10.A(5R) mice (Fig. 6), five mice tested individually) is “no T cell proliferation was detected”. Further, the “core region of determinant (residues)” value is on record as 66-74 in [5] and 69-76 in [7]. Also, the “T cell response induced” value in [6] is “potent MHC class II-restricted T cell responses”.
For the substance “HEL 1-17: known binder peptide in the I-Ek competition assay (KVFGRCELAAAMKRHGL; UniProt P00698 19-35, looked up, fragment)”, in assay [8], the “binding to I-Ek (control designation)” value is recorded as “known binder”.
Take “HEL 105-120: hen egg white lysozyme (HEL) 105-120 peptide known for its binding to Ed (MNAWVAWRNRCKGTDV; UniProt P00698 123-138, looked up, fragment)”: in [9], the “binding to I-Ed (control designation)” value is “known binder”.
